Assay results published in the NIST ThermoML archive (doi:10.1007/s10765-006-0082-x).

Assay: compressibility factor (dimensionless); xn = mol fraction of the nth substance listed
Settings: Liquid, Burnett expansion method

[N-]=[N+]=O [nitrous oxide] + FC(F)F
Settings	compressibility factor
303.25 K, 141.8 kPa, x1 = 0.6613	0.9915
303.25 K, 151.7 kPa, x1 = 0.3152	0.9906
303.25 K, 160.7 kPa, x1 = 0.2248	0.991
303.25 K, 174.2 kPa, x1 = 0.5419	0.9896
303.25 K, 182.2 kPa, x1 = 0.4308	0.9882
303.25 K, 209.6 kPa, x1 = 0.7758	0.9883
303.25 K, 211.4 kPa, x1 = 0.6613	0.9879
303.25 K, 225.8 kPa, x1 = 0.3152	0.9858
303.25 K, 239.5 kPa, x1 = 0.2248	0.9872
303.25 K, 259.3 kPa, x1 = 0.5419	0.9847
303.25 K, 271.2 kPa, x1 = 0.4308	0.9832
303.25 K, 311.9 kPa, x1 = 0.7758	0.983
303.25 K, 314.4 kPa, x1 = 0.6613	0.9824
303.25 K, 335.5 kPa, x1 = 0.3152	0.9789
303.25 K, 356.1 kPa, x1 = 0.2248	0.9814
303.25 K, 385.1 kPa, x1 = 0.5419	0.9775
303.25 K, 402.6 kPa, x1 = 0.4308	0.9756
303.25 K, 462.7 kPa, x1 = 0.7758	0.9749
303.25 K, 466.4 kPa, x1 = 0.6613	0.974
303.25 K, 496.7 kPa, x1 = 0.3152	0.9688
303.25 K, 528.1 kPa, x1 = 0.2248	0.9726
303.25 K, 569.8 kPa, x1 = 0.5419	0.9668
303.25 K, 595 kPa, x1 = 0.4308	0.9638
303.25 K, 683.7 kPa, x1 = 0.7758	0.9628
303.25 K, 688.8 kPa, x1 = 0.6613	0.9615
303.25 K, 731.3 kPa, x1 = 0.3152	0.9534
303.25 K, 779.4 kPa, x1 = 0.2248	0.9596
303.25 K, 838.3 kPa, x1 = 0.5419	0.9507
303.25 K, 874.1 kPa, x1 = 0.4308	0.9464
303.25 K, 1003.6 kPa, x1 = 0.7758	0.9446
303.25 K, 1010.4 kPa, x1 = 0.6613	0.9427
303.25 K, 1068.3 kPa, x1 = 0.3152	0.9309
303.25 K, 1142.3 kPa, x1 = 0.2248	0.94
303.25 K, 1222.8 kPa, x1 = 0.5419	0.9269
303.25 K, 1272.3 kPa, x1 = 0.4308	0.9208
303.25 K, 1459.1 kPa, x1 = 0.7758	0.918
303.25 K, 1467.5 kPa, x1 = 0.6613	0.9152
303.25 K, 1541.6 kPa, x1 = 0.3152	0.8979
303.25 K, 1657.1 kPa, x1 = 0.2248	0.9115
303.25 K, 1760.9 kPa, x1 = 0.5419	0.8922
303.25 K, 1825.8 kPa, x1 = 0.4308	0.8832
303.25 K, 2090.5 kPa, x1 = 0.7758	0.8791
303.25 K, 2099 kPa, x1 = 0.6613	0.8749
303.25 K, 2185.1 kPa, x1 = 0.3152	0.8507
303.25 K, 2366.6 kPa, x1 = 0.2248	0.8701
303.25 K, 2486.5 kPa, x1 = 0.5419	0.8421
303.25 K, 2565.1 kPa, x1 = 0.4308	0.8294
303.25 K, 2929 kPa, x1 = 0.7758	0.8233
303.25 K, 2933.8 kPa, x1 = 0.6613	0.8174
303.25 K, 3012.1 kPa, x1 = 0.3152	0.7838
303.25 K, 3303.6 kPa, x1 = 0.2248	0.8119
303.25 K, 3408.6 kPa, x1 = 0.5419	0.7716
303.25 K, 3489.6 kPa, x1 = 0.4308	0.7542
303.25 K, 3965.1 kPa, x1 = 0.7758	0.7449
323.43 K, 176.4 kPa, x1 = 0.5105	0.9908
323.43 K, 262.8 kPa, x1 = 0.5105	0.987
323.43 K, 391 kPa, x1 = 0.5105	0.9814
323.43 K, 579.9 kPa, x1 = 0.5105	0.9729
323.43 K, 856.1 kPa, x1 = 0.5105	0.96
323.43 K, 1255 kPa, x1 = 0.5105	0.9406
323.43 K, 1820.9 kPa, x1 = 0.5105	0.9123
323.43 K, 2601.4 kPa, x1 = 0.5105	0.8711
323.43 K, 3632.8 kPa, x1 = 0.5105	0.8131
323.44 K, 159.9 kPa, x1 = 0.6428	0.9917
323.44 K, 170.7 kPa, x1 = 0.7792	0.992
323.44 K, 174 kPa, x1 = 0.358	0.9909
323.44 K, 238.4 kPa, x1 = 0.6428	0.9886
323.44 K, 254.5 kPa, x1 = 0.7792	0.9888
323.44 K, 259.3 kPa, x1 = 0.358	0.9869
323.44 K, 354.9 kPa, x1 = 0.6428	0.9837
323.44 K, 378.9 kPa, x1 = 0.7792	0.9837
323.44 K, 385.6 kPa, x1 = 0.358	0.9809
323.44 K, 527.1 kPa, x1 = 0.6428	0.9764
323.44 K, 562.3 kPa, x1 = 0.7792	0.9759
323.44 K, 571.6 kPa, x1 = 0.358	0.972
323.44 K, 779.5 kPa, x1 = 0.6428	0.9653
323.44 K, 831.2 kPa, x1 = 0.7792	0.9642
323.44 K, 843.2 kPa, x1 = 0.358	0.9583
323.44 K, 1145.9 kPa, x1 = 0.6428	0.9485
323.44 K, 1221 kPa, x1 = 0.7792	0.9467
323.44 K, 1235.2 kPa, x1 = 0.358	0.9384
323.44 K, 1669.1 kPa, x1 = 0.6428	0.9234
323.44 K, 1777.2 kPa, x1 = 0.7792	0.921
323.44 K, 1790.3 kPa, x1 = 0.358	0.9091
323.44 K, 2399.2 kPa, x1 = 0.6428	0.8872
323.44 K, 2551 kPa, x1 = 0.7792	0.8837
323.44 K, 2553.4 kPa, x1 = 0.358	0.8666
323.44 K, 3379.9 kPa, x1 = 0.6428	0.8354
323.44 K, 3557 kPa, x1 = 0.358	0.8069
323.44 K, 3585.4 kPa, x1 = 0.7792	0.8302
343.87 K, 201 kPa, x1 = 0.7837	0.9917
343.87 K, 299.8 kPa, x1 = 0.7837	0.9888
343.87 K, 446.5 kPa, x1 = 0.7837	0.9842
343.87 K, 663 kPa, x1 = 0.7837	0.9769
343.87 K, 980.8 kPa, x1 = 0.7837	0.966
343.87 K, 1442.6 kPa, x1 = 0.7837	0.9497
343.87 K, 2103.1 kPa, x1 = 0.7837	0.9254
343.87 K, 3026.4 kPa, x1 = 0.7837	0.8901
343.87 K, 4273 kPa, x1 = 0.7837	0.8401
343.95 K, 79.8 kPa, x1 = 0.6698	0.9965
343.95 K, 90.5 kPa, x1 = 0.2403	0.991
343.95 K, 92.3 kPa, x1 = 0.4174	0.9925
343.95 K, 119.5 kPa, x1 = 0.6698	0.9953
343.95 K, 128.4 kPa, x1 = 0.536	0.9933
343.95 K, 135.6 kPa, x1 = 0.2403	0.991
343.95 K, 138.2 kPa, x1 = 0.4174	0.9917
343.95 K, 178.9 kPa, x1 = 0.6698	0.9945
343.95 K, 192 kPa, x1 = 0.536	0.9915
343.95 K, 202.9 kPa, x1 = 0.2403	0.9897
343.95 K, 206.8 kPa, x1 = 0.4174	0.9901
343.95 K, 266.9 kPa, x1 = 0.6698	0.9901
343.95 K, 287 kPa, x1 = 0.536	0.9886
343.95 K, 303.2 kPa, x1 = 0.2403	0.9866
343.95 K, 308.9 kPa, x1 = 0.4174	0.9871
343.95 K, 398.2 kPa, x1 = 0.6698	0.9857
343.95 K, 428 kPa, x1 = 0.536	0.9839
343.95 K, 451.8 kPa, x1 = 0.2403	0.9812
343.95 K, 460.6 kPa, x1 = 0.4174	0.9821
343.95 K, 592.7 kPa, x1 = 0.6698	0.9789
343.95 K, 636.6 kPa, x1 = 0.536	0.9767
343.95 K, 671.3 kPa, x1 = 0.2403	0.9728
343.95 K, 684.7 kPa, x1 = 0.4174	0.9741
343.95 K, 879 kPa, x1 = 0.6698	0.9688
343.95 K, 943.2 kPa, x1 = 0.536	0.9656
343.95 K, 992.7 kPa, x1 = 0.2403	0.9599
343.95 K, 1013 kPa, x1 = 0.4174	0.9617
343.95 K, 1296.6 kPa, x1 = 0.6698	0.9537
343.95 K, 1389 kPa, x1 = 0.536	0.9489
343.95 K, 1457.5 kPa, x1 = 0.2403	0.9405
343.95 K, 1488.7 kPa, x1 = 0.4174	0.9431
343.95 K, 1897.6 kPa, x1 = 0.6698	0.9313
343.95 K, 2027.4 kPa, x1 = 0.536	0.9241
343.95 K, 2117.9 kPa, x1 = 0.2403	0.9119
343.95 K, 2166.3 kPa, x1 = 0.4174	0.9157
343.95 K, 2743.8 kPa, x1 = 0.6698	0.8986
343.95 K, 2920 kPa, x1 = 0.536	0.8882
343.95 K, 3030.8 kPa, x1 = 0.2403	0.8708
343.95 K, 3105.8 kPa, x1 = 0.4174	0.8761
343.95 K, 3898.2 kPa, x1 = 0.6698	0.8519
343.95 K, 4125.5 kPa, x1 = 0.536	0.8374
343.95 K, 4242.9 kPa, x1 = 0.2403	0.8135
343.95 K, 4359.1 kPa, x1 = 0.4174	0.8205
